Source: publication PMC12516557, “Isolation and characterization of peroxidase from potato leaves Solanum tuberosum: Application in glucose diagnostic kit” (Journal of Genetic Engineering & Biotechnology, 2025)

Test system: T1, potato leaves peroxidase (PLPOD)
T1 construct: gene POD; native enzyme from mature leaves (Nile Delta, Egypt); CM-cellulose and Sephacryl S-300; 64 kDa by gel filtration; 3 activity bands ~40-65 kDa on SDS-PAGE
Assay: guaiacol oxidation at […] nm, Lineweaver-Burk plot
Format: biochemical, Solanum tuberosum
Conditions: co-substrate H2O2; sodium acetate buffer pH 5.6 (general assay); mixture of isoenzymes; discussion b65 prints 0.066 mM

**Q.** With `COc1ccccc1O` [guaiacol] as the compound, how does the Km read?
**A.** 67 µM
